According to patent US7138361B2, “Herbicidal heterocycles” (E. I. du Pont de Nemours and Company, priority 2000, dated 2006):

Assays:
Test in all cases: Test C preemergence
Format in all cases: in vivo
Nightshade = details: scale 0 to 100, 0 no effect, 100 complete control
Sunflower [1] = details: Rate 125 g/ha; scale 0 to 100, 0 no effect, 100 complete control
[2] = tested on: Surinam grass (Brachiaria decumbens); details: for Plant response rating, Surinam grass: scale 0 to 100, 0 no effect, 100 complete control; for Plant response rating (0 to 100), Surinam grass: preemergence, visual evaluation after 12 to 14 days
Summary of the method: (§1)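 Herbicidal effect is a visual 0–100 score (100 = complete control) assigned versus untreated plants, 12 to 14 days after spraying in the greenhouse. Test compounds were applied in a non-phytotoxic, surfactant-containing solvent.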

[3] = tested on: bermudagrass (Cynodon dactylon); details: for Plant response rating, Bermudagrass: scale 0 to 100, 0 no effect, 100 complete control; for Plant response rating (0 to 100 where 0 is no effect and 100 is complete control), Bermudagrass: preemergence, visual evaluation after 12 to 14 days
Summary of the method: as §1

[4] = tested on: cocklebur (Xanthium strumarium); details: for Plant response rating, Cocklebur: scale 0 to 100, 0 no effect, 100 complete control; for Plant response rating (0 to 100), Cocklebur: preemergence, visual evaluation after 12 to 14 days
Summary of the method: as §1

[5] = tested on: common ragweed (Ambrosia elatior); details: for Plant response rating, Ragweed, Common: scale 0 to 100, 0 no effect, 100 complete control
Summary of the method: as §1

corn (Zea mays) = details: for Plant response rating, Corn: scale 0 to 100, 0 no effect, 100 complete control; for Plant response rating (0 to 100), Corn: preemergence, visual evaluation after 12 to 14 days
Summary of the method: as §1

[6] = tested on: crabgrass (Digitaria sanguinalis); details: for Plant response rating, Crabgrass: scale 0 to 100, 0 no effect, 100 complete control; for Plant response rating (0 to 100), Crabgrass: preemergence, visual evaluation after 12 to 14 days
Summary of the method: as §1

[7] = tested on: giant foxtail (Setaria faberii); details: for Plant response rating, Foxtail, Giant: scale 0 to 100, 0 no effect, 100 complete control; for Plant response rating (0 to 100), Foxtail, Giant: preemergence, visual evaluation after 12 to 14 days
Summary of the method: as §1

[8] = tested on: goosegrass (Eleusine indica); details: for Plant response rating, Goosegrass: scale 0 to 100, 0 no effect, 100 complete control; for Plant response rating (0 to 100), Goosegrass: preemergence, visual evaluation after 12 to 14 days
Summary of the method: as §1

[9] = tested on: johnsongrass (Sorghum halepense); details: for Plant response rating, Johnsongrass: scale 0 to 100, 0 no effect, 100 complete control; for Plant response rating (0 to 100), Johnsongrass: preemergence, visual evaluation after 12 to 14 days
Summary of the method: as §1

kochia (Kochia scoparia) = details: for Plant response rating, Kochia: scale 0 to 100, 0 no effect, 100 complete control; for Plant response rating (0 to 100), Kochia: preemergence, visual evaluation after 12 to 14 days
Summary of the method: as §1

[10] = tested on: lambsquarters (Chenopodium album); details: for Plant response rating, Lambsquarters: scale 0 to 100, 0 no effect, 100 complete control
Summary of the method: as §1

[11] = tested on: morningglory (Ipomoea hederacea); details: for Plant response rating, Morningglory: scale 0 to 100, 0 no effect, 100 complete control
Summary of the method: as §1

[12] = tested on: pigweed (Amaranthus retroflexus); details: for Plant response rating, Pigweed: scale 0 to 100, 0 no effect, 100 complete control
Summary of the method: as §1

soybean (Glycine max) = details: for Plant response rating, Soybean: scale 0 to 100, 0 no effect, 100 complete control
Summary of the method: as §1

[13] = tested on: velvetleaf (Abutilon theophrasti); details: for Plant response rating, Velvetleaf: scale 0 to 100, 0 no effect, 100 complete control
Summary of the method: as §1

[14] = tested on: woolly cupgrass (Eriochloa villosa); details: for Plant response rating, Cupgrass, Woolly: scale 0 to 100, 0 no effect, 100 complete control; for Plant response rating (0 to 100), Cupgrass, Woolly: preemergence, visual evaluation after 12 to 14 days
Summary of the method: as §1

[15] = tested on: yellow nutsedge (Cyperus esculentus); details: for Plant response rating, Nutsedge: scale 0 to 100, 0 no effect, 100 complete control
Summary of the method: as §1

Sunflower [16] = details: Rate 250 g/ha, scale 0 to 100, 0 no effect, 100 complete control
[17] = preemergence, Rate 500 g/ha, visual evaluation after 12 to 14 days

CC(C)Oc1cccc(N2CCC(n3ccc(C(C)C)n3)C2=O)c1 (stereo not drawn) [Compound 82]
Plant response rating, Nightshade (Nightshade; Rate 62 g/ha): 0 | Plant response rating, Nightshade (Nightshade; Rate 125 g/ha): 10 | Plant response rating, Nightshade (Nightshade; Rate 250 g/ha): 30 | Plant response rating, Sunflower (Sunflower [1]): 20 | Plant response rating, Surinam grass ([2]; Rate 62 g/ha): 10 | Plant response rating, Surinam grass ([2]; Rate 125 g/ha): 80 | Plant response rating (0 to 100), Surinam grass ([2]; Rate 250 g/ha): 70 | Plant response rating (0 to 100), Surinam grass ([2]; Rate 500 g/ha): 100 | Plant response rating, Bermudagrass ([3]; Rate 62 g/ha): 100 | Plant response rating, Bermudagrass ([3]; Rate 125 g/ha): 90 | Plant response rating (0 to 100 where 0 is no effect and 100 is complete control), Bermudagrass ([3]; Rate 250 g/ha): 100 | Plant response rating (0 to 100 where 0 is no effect and 100 is complete control), Bermudagrass ([3]; Rate 500 g/ha): 100 | Plant response rating, Cocklebur ([4]; Rate 62 g/ha): 0 | Plant response rating, Cocklebur ([4]; Rate 125 g/ha): 10 | Plant response rating (0 to 100), Cocklebur ([4]; Rate 250 g/ha): 20 | Plant response rating (0 to 100), Cocklebur ([4]; Rate 500 g/ha): 40 | Plant response rating, Ragweed, Common ([5]; Rate 125 g/ha): 0 | Plant response rating (0 to 100), Ragweed, Common [5, 17]: 100 | Plant response rating, Ragweed, Common ([5]; preemergence, Rate 250 g/ha): 50 | Plant response rating, Corn (corn (Zea mays); Rate 62 g/ha): 0 | Plant response rating, Corn (corn (Zea mays); Rate 125 g/ha): 20 | Plant response rating (0 to 100), Corn (corn (Zea mays); Rate 250 g/ha): 10 | Plant response rating (0 to 100), Corn (corn (Zea mays); Rate 500 g/ha): 30 | Plant response rating, Crabgrass ([6]; Rate 62 g/ha): 100 | Plant response rating, Crabgrass ([6]; Rate 125 g/ha): 100 | Plant response rating (0 to 100), Crabgrass ([6]; Rate 250 g/ha): 100 | Plant response rating (0 to 100), Crabgrass ([6]; Rate 500 g/ha): 100 | Plant response rating, Foxtail, Giant ([7]; Rate 62 g/ha): 30 | Plant response rating, Foxtail, Giant ([7]; Rate 125 g/ha): 0 | Plant response rating (0 to 100), Foxtail, Giant ([7]; Rate 250 g/ha): 100 | Plant response rating (0 to 100), Foxtail, Giant ([7]; Rate 500 g/ha): 100 | Plant response rating, Goosegrass ([8]; Rate 62 g/ha): 90 | Plant response rating, Goosegrass ([8]; Rate 125 g/ha): 100 | Plant response rating (0 to 100), Goosegrass ([8]; Rate 250 g/ha): 100 | Plant response rating (0 to 100), Goosegrass ([8]; Rate 500 g/ha): 100 | Plant response rating, Johnsongrass ([9]; Rate 62 g/ha): 40 | Plant response rating, Johnsongrass ([9]; Rate 125 g/ha): 50 | Plant response rating (0 to 100), Johnsongrass ([9]; Rate 250 g/ha): 50 | Plant response rating (0 to 100), Johnsongrass ([9]; Rate 500 g/ha): 60 | Plant response rating, Kochia (kochia (Kochia scoparia); Rate 62 g/ha): 0 | Plant response rating, Kochia (kochia (Kochia scoparia); Rate 125 g/ha): 90 | Plant response rating (0 to 100), Kochia (kochia (Kochia scoparia); Rate 250 g/ha): 100 | Plant response rating (0 to 100), Kochia (kochia (Kochia scoparia); Rate 500 g/ha): 100 | Plant response rating, Lambsquarters ([10]; Rate 62 g/ha): 100 | Plant response rating, Lambsquarters ([10]; Rate 125 g/ha): 100 | Plant response rating (0 to 100), Lambsquarters [10, 17]: 100 | Plant response rating, Lambsquarters ([10]; preemergence, Rate 250 g/ha): 100 | Plant response rating, Morningglory ([11]; Rate 62 g/ha): 20 | Plant response rating, Morningglory ([11]; Rate 125 g/ha): 10 | Plant response rating (0 to 100), Morningglory [11, 17]: 80 | Plant response rating, Morningglory ([11]; preemergence, Rate 250 g/ha): 20 | Plant response rating, Pigweed ([12]; Rate 125 g/ha): 70 | Plant response rating (0 to 100), Pigweed [12, 17]: 0 | Plant response rating, Pigweed ([12]; preemergence, Rate 250 g/ha): 100 | Plant response rating, Soybean (soybean (Glycine max); Rate 125 g/ha): 10 | Plant response rating (0 to 100), Soybean (soybean (Glycine max); [17]): 60 | Plant response rating, Soybean (soybean (Glycine max); preemergence, Rate 250 g/ha): 30 | Plant response rating, Velvetleaf ([13]; Rate 125 g/ha): 10 | Plant response rating (0 to 100), Velvetleaf [13, 17]: 30 | Plant response rating, Velvetleaf ([13]; preemergence, Rate 250 g/ha): 10 | Plant response rating, Cupgrass, Woolly ([14]; Rate 62 g/ha): 70 | Plant response rating, Cupgrass, Woolly ([14]; Rate 125 g/ha): 90 | Plant response rating (0 to 100), Cupgrass, Woolly ([14]; Rate 250 g/ha): 90 | Plant response rating (0 to 100), Cupgrass, Woolly ([14]; Rate 500 g/ha): 100 | Plant response rating, Nutsedge ([15]; Rate 62 g/ha): 0 | Plant response rating, Nutsedge ([15]; Rate 125 g/ha): 0 | Plant response rating (0 to 100), Nutsedge [15, 17]: 40 | Plant response rating, Nutsedge ([15]; preemergence, Rate 250 g/ha): 10 | Plant response rating, Sunflower (Sunflower [16]): 70
